The structures appear in SMILES notation. Starred links: 1 amine or outer side, 2 acyl side, 3 side chain; linkers in the order of their positions; H or OH if unused. Positions of bridges follow the written chain, without caps; N, C: chain ends. Non-standard residues stand in square brackets, D forms with d. Residues, ends and D or L forms follow the SMILES beside them. Trp(7-aza) = N[C@@H](Cc1c[nH]c2ncccc12)C(=O)O; NMePhe(4-F) = CN[C@@H](Cc1ccc(F)cc1)C(=O)O; Phe(3-Cl) = N[C@@H](Cc1cccc(Cl)c1)C(=O)O; mXylylene = c1cc(C[*:1])cc(C[*:2])c1; pXylylene = c1cc(C[*:2])ccc1C[*:1]; Phg = N[C@H](C(=O)O)c1ccccc1; Tle = CC(C)(C)[C@H](N)C(=O)O; NMeS = CN[C@@H](CO)C(=O)O; Nva = CCC[C@H](N)C(=O)O

Chain of C5 (P01031 19-1676): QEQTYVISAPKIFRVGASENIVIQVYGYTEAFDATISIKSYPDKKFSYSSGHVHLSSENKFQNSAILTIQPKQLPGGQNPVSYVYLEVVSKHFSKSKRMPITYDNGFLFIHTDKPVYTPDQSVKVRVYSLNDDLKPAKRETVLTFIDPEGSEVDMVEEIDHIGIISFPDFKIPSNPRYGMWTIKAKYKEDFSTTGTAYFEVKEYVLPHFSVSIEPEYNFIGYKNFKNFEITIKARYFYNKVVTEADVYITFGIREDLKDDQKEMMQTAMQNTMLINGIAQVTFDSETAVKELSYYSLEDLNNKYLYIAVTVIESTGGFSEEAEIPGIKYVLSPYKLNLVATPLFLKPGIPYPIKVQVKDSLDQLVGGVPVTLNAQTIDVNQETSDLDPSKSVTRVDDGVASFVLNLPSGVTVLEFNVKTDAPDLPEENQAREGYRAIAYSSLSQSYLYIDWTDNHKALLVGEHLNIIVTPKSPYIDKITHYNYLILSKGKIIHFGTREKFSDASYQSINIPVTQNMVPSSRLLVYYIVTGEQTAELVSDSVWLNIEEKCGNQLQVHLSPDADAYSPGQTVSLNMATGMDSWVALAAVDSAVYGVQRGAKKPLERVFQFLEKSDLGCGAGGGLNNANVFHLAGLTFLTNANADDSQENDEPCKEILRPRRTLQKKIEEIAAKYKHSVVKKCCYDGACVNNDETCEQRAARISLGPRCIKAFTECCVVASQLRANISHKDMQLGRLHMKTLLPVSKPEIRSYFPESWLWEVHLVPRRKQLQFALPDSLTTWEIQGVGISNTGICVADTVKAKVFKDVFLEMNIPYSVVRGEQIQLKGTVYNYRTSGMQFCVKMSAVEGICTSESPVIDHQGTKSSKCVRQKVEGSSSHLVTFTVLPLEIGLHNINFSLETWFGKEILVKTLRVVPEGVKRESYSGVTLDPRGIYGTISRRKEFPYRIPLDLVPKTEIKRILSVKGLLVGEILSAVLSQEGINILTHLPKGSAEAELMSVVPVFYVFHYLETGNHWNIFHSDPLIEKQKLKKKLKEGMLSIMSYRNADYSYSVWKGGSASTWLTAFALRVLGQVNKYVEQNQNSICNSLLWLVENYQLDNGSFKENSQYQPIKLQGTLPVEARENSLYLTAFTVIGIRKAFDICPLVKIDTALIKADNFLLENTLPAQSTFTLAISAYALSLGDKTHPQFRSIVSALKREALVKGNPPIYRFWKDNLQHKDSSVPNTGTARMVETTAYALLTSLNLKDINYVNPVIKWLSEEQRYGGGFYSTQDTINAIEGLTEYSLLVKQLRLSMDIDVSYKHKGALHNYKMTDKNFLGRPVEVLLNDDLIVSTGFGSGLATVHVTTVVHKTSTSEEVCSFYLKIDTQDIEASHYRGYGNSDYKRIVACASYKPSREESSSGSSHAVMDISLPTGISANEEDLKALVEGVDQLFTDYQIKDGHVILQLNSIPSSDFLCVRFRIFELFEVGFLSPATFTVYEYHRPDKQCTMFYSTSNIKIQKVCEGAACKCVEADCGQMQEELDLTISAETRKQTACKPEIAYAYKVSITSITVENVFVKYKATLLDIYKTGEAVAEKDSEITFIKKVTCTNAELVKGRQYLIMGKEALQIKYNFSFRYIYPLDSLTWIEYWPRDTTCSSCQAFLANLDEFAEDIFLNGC

The first assay concerns the target C5 (Homo sapiens, UniProt P01031). Kind of assay: Human hemolysis assay (RBC lysis assay using complete human sera). The assay is classed as cell-based. To be noted: C-terminally truncated polypeptide variants of R3021; inhibition of red blood cell lysis. Further details: with complete human sera (Complement Technology, Tyler Tex.) and polypeptides; tissue Complement Technology, Tyler Tex; host or cells: complete human serum.
One may read the IC50 as the midpoint of a concentration-inhibition curve. `CSCC[C@H](N)C(=O)N[C@H]1CSCc2cccc(c2)CSC[C@@H](C(N)=O)NC(=O)[C@H](Cc2ccccc2)NC(=O)[C@H](CCCNC(=N)N)NC(=O)[C@H](CCC(=O)O)NC(=O)[C@H](C(C)C)NC1=O` [Compound R3047, [mXylyl(2,7)]M-C-V-E-R-F-C-NH2] (H-MCVERFC-NH2; linker 2-7 via mXylylene) had an IC50 of more than 100000 nM.

The compound `CSCC[C@H](N)C(=O)N[C@H]1CSCc2cccc(c2)CSC[C@@H](C(=O)N[C@@H](CC(=O)O)C(=O)N[C@H](C(=O)N[C@@H](Cc2ccc(O)cc2)C(N)=O)C(C)C)NC(=O)[C@H](Cc2ccccc2)NC(=O)[C@H](CCCNC(=N)N)NC(=O)[C@H](CCC(=O)O)NC(=O)[C@H](C(C)C)NC1=O` [Compound R3045, [mXylyl(2,7)]M-C-V-E-R-F-C-D-V-Y-NH2] (H-MCVERFCDVY-NH2; linker 2-7 via mXylylene) displayed an IC50 of more than 100000 nM.

Staying with this assay, now noted: inhibition of lysis of antibody-sensitized sheep erythrocytes, complete human sera.
In the case of `CCC[C@H](NC(=O)[C@@H](NC(=O)[C@@H]1CCCN1C(=O)[C@H](Cc1ccc(O)cc1)NC(=O)[C@H](CCC(=O)O)NC(=O)[C@H](Cc1c[nH]c2ncccc12)NC(=O)[C@H](Cc1ccc(O)cc1)NC(=O)[C@@H](NC(=O)[C@H](CC(=O)O)N(C)C(=O)[C@@H]1CSCc2cccc(c2)CSC[C@H](NC(C)=O)C(=O)N[C@@H](C(C)C)C(=O)N[C@@H](CCC(=O)O)C(=O)N[C@@H](CCCNC(=N)N)C(=O)N[C@@H](Cc2ccccc2)C(=O)N1)C(C)(C)C)C1CCCCC1)C(N)=O` [Compound R3172, [mXylyl(1,6)]Ac-C-V-E-R-F-C-(N-Me)D-Tbg-Y-azaTrp-E-Y-P-Chg-Nvl-NH2], the IC50 was 12 nM.

On to `CCC[C@H](NC(=O)[C@@H]1CSCc2cccc(c2)CSC[C@H](NC(=O)[C@H](CCC)NC(C)=O)C(=O)N[C@@H](Cc2ccccc2)C(=O)N[C@@H]([C@@H](C)O)C(=O)N[C@@H](Cc2c[nH]c3ncccc23)C(=O)N[C@@H](CCC(=O)O)C(=O)N[C@@H](Cc2ccc(O)cc2)C(=O)N(C)[C@@H](CO)C(=O)N[C@@H](C)C(=O)N1)C(N)=O` [Compound R3090, [mXyly1(2,10)]Ac-Nvl-C-F-T-azaTrp-E-Y-(N-Me)S-A-C-Nvl-NH2] (Ac-[Nva]CFT[Trp(7-aza)]EY[NMeS]AC[Nva]-NH2; linker 2-10 via mXylylene), for which the IC50 is more than 100000 nM.

On to `CCCCCCCCCCCC(=O)NCCCC[C@H](NC(=O)[C@@H](NC(=O)[C@@H]1CCCN1C(=O)[C@H](Cc1ccc(O)cc1)NC(=O)[C@H](CCC(=O)O)NC(=O)[C@H](Cc1c[nH]c2ncccc12)NC(=O)[C@H](Cc1ccc(O)cc1)NC(=O)[C@@H](NC(=O)[C@H](CC(=O)O)NC(=O)[C@@H]1CSCc2cccc(c2)CSC[C@H](NC(C)=O)C(=O)N[C@@H](C)C(=O)N[C@@H](CCC(=O)O)C(=O)N[C@@H](CCCNC(=N)N)C(=O)N[C@@H](Cc2ccccc2)C(=O)N1)C(C)(C)C)c1ccccc1)C(N)=O` [Compound R3164, [mXylyl(1,6)]Ac-C-A-E-R-F-C-D-Tbg-Y-azaTrp-E-Y-P-Phg-(Lys-C12)-NH2], for which the IC50 is 36 nM.

For `CCC[C@H](N)C(=O)N[C@H]1CSCc2cccc(c2)CSC[C@@H](C(N)=O)NC(=O)CNC(=O)[C@H](Cc2ccc(F)cc2)N(C)C(=O)[C@H](Cc2c[nH]cn2)NC(=O)[C@H](CO)N(C)C(=O)[C@H](Cc2ccc(F)cc2)N(C)C(=O)[C@H](c2ccccc2)NC(=O)[C@H](CO)N(C)C(=O)[C@H](Cc2ccc(O)cc2)NC1=O` [Compound R3075, [mXylyl(2,11)]Nvl-C-Y-(N-Me)S-Phg-(N-Me-4-F)Phe-(N-Me)S-H-(N-Me-4-F)Phe-G-C-NH2] (H-[Nva]CY[NMeS][Phg][NMePhe(4-F)][NMeS]H[NMePhe(4-F)]GC-NH2; linker 2-11 via mXylylene), the IC50 was more than 75000 nM.

As for `CCC[C@H](NC(=O)[C@@H]1CSCc2ccc(cc2)CSC[C@H](NC(=O)[C@H](CCC)NC(C)=O)C(=O)N[C@@H](c2ccccc2)C(=O)N[C@@H]([C@@H](C)O)C(=O)N[C@@H](Cc2c[nH]c3ncccc23)C(=O)N[C@@H](CCC(=O)O)C(=O)N[C@@H](Cc2ccc(O)cc2)C(=O)N2CCC[C@H]2C(=O)N[C@@H](Cc2c[nH]cn2)C(=O)N1)C(N)=O` [Compound R3065, [pXy1y1(2,10)]Ac-Nvl-C-PhE-T-azaTrp-E-Y-P-H-C-Nvl-NH2] (Ac-[Nva]C[Phg]T[Trp(7-aza)]EYPHC[Nva]-NH2; linker 2-10 via pXylylene), the IC50 stood at 394 nM.

`CCCCCCCC(=O)NCCCC[C@H](NC(=O)[C@@H](NC(=O)[C@@H]1CCCN1C(=O)[C@H](Cc1ccc(O)cc1)NC(=O)[C@H](CCC(=O)O)NC(=O)[C@H](Cc1c[nH]c2ncccc12)NC(=O)[C@H](Cc1ccc(O)cc1)NC(=O)[C@@H](NC(=O)[C@H](CC(=O)O)NC(=O)[C@@H]1CSCc2cccc(c2)CSC[C@H](NC(C)=O)C(=O)N[C@@H](C)C(=O)N[C@@H](CCC(=O)O)C(=O)N[C@@H](CCCNC(=N)N)C(=O)N[C@@H](Cc2ccccc2)C(=O)N1)C(C)(C)C)c1ccccc1)C(N)=O` [Compound R3166, [mXylyl(1,6)]Ac-C-A-E-R-F-C-D-Tbg-Y-azaTrp-E-Y-P-Phg-(Lys-C8)-NH2]: the 50% inhibitory concentration (IC50) amounted to 17.5 nM.

Turning to `CCC[C@H](NC(=O)[C@@H]1CSCc2cccc(c2)CSC[C@H](NC(=O)[C@H](C)NC(C)=O)C(=O)N[C@@H](c2ccccc2)C(=O)N[C@@H]([C@@H](C)O)C(=O)N[C@@H](Cc2c[nH]c3ncccc23)C(=O)N[C@@H](CCC(=O)O)C(=O)N[C@@H](Cc2ccc(O)cc2)C(=O)N(C)[C@@H](CO)C(=O)N[C@@H](Cc2c[nH]cn2)C(=O)N1)C(N)=O` [Compound R3031, [mXylyl(2,10)]Ac-A-C-Phg-T-azaTrp-E-Y-(N-Me)S-H-C-Nvl-NH2] (Ac-AC[Phg]T[Trp(7-aza)]EY[NMeS]HC[Nva]-NH2; linker 2-10 via mXylylene), the IC50 came to 1090 nM.

As for `CCC[C@H](NC(=O)[C@@H]1CSCc2cccc(c2)CSC[C@H](NC(=O)[C@H](CCC)NC(C)=O)C(=O)N[C@@H](c2ccccc2)C(=O)N[C@@H](C)C(=O)N[C@@H](Cc2c[nH]c3ncccc23)C(=O)N[C@@H](CCC(=O)O)C(=O)N[C@@H](Cc2ccc(O)cc2)C(=O)N(C)[C@@H](CO)C(=O)N[C@@H](Cc2c[nH]cn2)C(=O)N1)C(N)=O` [Compound R3033, [mXylyl(2,10)]Ac-Nvl-C-Phg-A-azaTrp-E-Y-(N-Me)S-H-C-Nvl-NH2] (Ac-[Nva]C[Phg]A[Trp(7-aza)]EY[NMeS]HC[Nva]-NH2; linker 2-10 via mXylylene), the IC50 worked out at 131 nM.

Take `CSCC[C@H](N)C(=O)N[C@H]1CSCc2cccc(c2)CSC[C@@H](C(N)=O)NC(=O)[C@H](Cc2ccccc2)NC(=O)[C@H](CCCNC(=N)N)NC(=O)[C@H](CCC(=O)O)NC(=O)[C@H](C(C)C)NC1=O` [Compound R3047, [mXylyl(2,7)]M-C-V-E-R-F-C-NH2] (H-MCVERFC-NH2; linker 2-7 via mXylylene): the IC50 is more than 100000 nM.

For the compound `CC(=O)N[C@H]1CSCc2cccc(c2)CSC[C@@H](C(N)=O)NC(=O)[C@H](Cc2c[nH]cn2)NC(=O)[C@H](CO)N(C)C(=O)[C@H](Cc2ccc(O)cc2)NC(=O)[C@H](CCC(=O)O)NC(=O)[C@H](Cc2c[nH]c3ncccc23)NC(=O)[C@H](Cc2ccc(O)cc2)NC(=O)[C@H](C(C)(C)C)NC1=O` [Compound R3016, [mXylyl(1,9)]Ac-C-Tbg-Y-azaTrp-E-Y-(N-Me)S-H-C-NH2] (Ac-C[Tle]Y[Trp(7-aza)]EY[NMeS]HC-NH2; linker 1-9 via mXylylene), the half-maximal inhibitory concentration (IC50) was more than 13000 nM.

For the compound `CSCC[C@H](N)C(=O)N[C@H]1CSCc2cccc(c2)CSC[C@@H](C(=O)N[C@@H](CC(=O)O)C(=O)N[C@H](C(=O)N[C@@H](Cc2ccc(O)cc2)C(N)=O)C(C)C)NC(=O)[C@H](Cc2ccccc2)NC(=O)[C@H](CCCNC(=N)N)NC(=O)[C@H](CCC(=O)O)NC(=O)[C@H](C(C)C)NC1=O` [Compound R3045, [mXylyl(2,7)]M-C-V-E-R-F-C-D-V-Y-NH2] (H-MCVERFCDVY-NH2; linker 2-7 via mXylylene), the IC50 was more than 100000 nM.

Consider `CCC[C@H](NC(=O)[C@@H]1CSCc2cccc(c2)CSC[C@H](NC(=O)[C@H](CCC)NC(C)=O)C(=O)N[C@@H](c2ccccc2)C(=O)N[C@@H]([C@@H](C)O)C(=O)N[C@@H](Cc2c[nH]c3ncccc23)C(=O)N[C@@H](CCC(=O)O)C(=O)N[C@@H](Cc2cccc(Cl)c2)C(=O)N(C)[C@@H](CO)C(=O)N[C@@H](C)C(=O)N1)C(N)=O` [Compound R3134, [mXylyl(2,10)]Ac-Nvl-C-Phg-T-azaTrp-E-(3-Cl-Phe)-(N-Me)S-A-C-Nvl-NH2] (Ac-[Nva]C[Phg]T[Trp(7-aza)]E[Phe(3-Cl)][NMeS]AC[Nva]-NH2; linker 2-10 via mXylylene), for which the IC50 was more than 5000 nM.

`CCC[C@H](NC(=O)[C@@H](NC(=O)[C@@H]1CCCN1C(=O)[C@H](Cc1ccc(O)cc1)NC(=O)[C@H](CCC(=O)O)NC(=O)[C@H](Cc1c[nH]c2ccccc12)NC(=O)[C@H](Cc1ccc(O)cc1)NC(=O)[C@@H](NC(=O)[C@H](CC(=O)O)NC(=O)[C@@H]1CSCc2cccc(c2)CSC[C@H](NC(C)=O)C(=O)N[C@@H](C)C(=O)N[C@@H](CCC(=O)O)C(=O)N[C@@H](CCCNC(=N)N)C(=O)N[C@@H](Cc2ccccc2)C(=O)N1)C(C)(C)C)c1ccccc1)C(N)=O` [Compound R3148, [mXylyl(1,6)]Ac-C-A-E-R-F-C-D-Tbg-Y-W-E-Y-P-Phg-Nvl-NH2] (Ac-CAERFCD[Tle]YWEYP[Phg][Nva]-NH2; linker 1-6 via mXylylene): the half-inhibitory concentration (IC50) is 8.5 nM.

`CC(=O)N[C@H]1CSCc2cccc(c2)CSC[C@@H](C(=O)N[C@@H](CC(=O)O)C(=O)N[C@H](C(=O)N[C@@H](Cc2ccc(O)cc2)C(=O)N[C@@H](Cc2c[nH]c3ccccc23)C(=O)N[C@@H](CCC(=O)O)C(=O)N[C@@H](Cc2ccccc2)C(N)=O)C(C)C)NC(=O)[C@H](Cc2ccccc2)NC(=O)[C@H](CCCNC(=N)N)NC(=O)[C@H](CCC(=O)O)NC(=O)[C@H](C(C)C)NC1=O` [Compound R3048, [mXylyl(1,6)]Ac-C-V-E-R-F-C-D-V-Y-W-E-F-NH2] (Ac-CVERFCDVYWEF-NH2; linker 1-6 via mXylylene): the IC50 was 19.3 nM.

As to `CCC[C@H](NC(=O)[C@@H]1CSCc2cccc(c2)CSC[C@H](NC(=O)[C@H](CCC)NC(C)=O)C(=O)N[C@@H](c2ccccc2)C(=O)N[C@@H]([C@@H](C)O)C(=O)N[C@@H](Cc2c[nH]c3ncccc23)C(=O)N[C@@H](CC(N)=O)C(=O)N[C@@H](Cc2ccc(O)cc2)C(=O)N(C)[C@@H](CO)C(=O)N[C@@H](C)C(=O)N1)C(N)=O` [Compound R3099, [mXylyl(2,10)]Ac-Nvl-C-Phg-T-azaTrp-N-Y-(N-Me)S-A-C-Nvl-NH2] (Ac-[Nva]C[Phg]T[Trp(7-aza)]NY[NMeS]AC[Nva]-NH2; linker 2-10 via mXylylene), the concentration for half-maximal inhibition (IC50) is more than 100000 nM.

Staying with this assay, now noted: variants of R3021, R3002 or R3008.
As to `CC(=O)N[C@H]1CSCc2cccc(c2)CSC[C@@H](C(=O)N[C@@H](CC(=O)O)C(=O)N[C@H](C(=O)N[C@@H](Cc2ccc(O)cc2)C(=O)N[C@@H](Cc2c[nH]c3ccccc23)C(=O)N[C@@H](CCC(=O)O)C(=O)N[C@@H](Cc2ccccc2)C(N)=O)C(C)C)NC(=O)[C@H](Cc2ccccc2)NC(=O)[C@H](CCCNC(=N)N)NC(=O)[C@H](CCC(=O)O)NC(=O)[C@H](C(C)C)NC1=O` [Compound R3048, [mXylyl(1,6)]Ac-C-V-E-R-F-C-D-V-Y-W-E-F-NH2] (Ac-CVERFCDVYWEF-NH2; linker 1-6 via mXylylene), the “ability to inhibit red blood cell lysis compared with the parent polypeptide (in words)” value was “increased the ability”.

The values are drawn from patent US10208089B2, “Modulation of complement activity” (priority 2014, dated 2019).
